Literature values, collected in patent publication US20140037570A1, “NBPT solution for preparing urease inhibited urea fertilizers prepared from N-alkyl; N, N-alkyl; and N-alkyl-N-alkoxy amino alcohols” (Whitehurst Associates Inc., priority 2012, published 2014).

Settings: background statement on NBPT

For `CCCCNP(N)(N)=S` [NBPT, N-(n-butyl)thiophosphoric triamide], the stability is listed as “thermally unstable”.
